# Reference: the kinase profiling compilation of Christmann-Franck et al. (2016)
# Key:
# [1] = test system: PHKG1 or PHKG2 (rabbit); details: compound 10.0 µM; accession and sequence are those of the human protein
# [2] = molecular target: AKT1 (human) (UniProt P31749); details: compound 1.0 µM; ATP 100 µM
# [3] = molecular target: CHEK1 (human) (UniProt O14757); details: ATP 100 µM
# [4] = molecular target: CSNK2A1 or CSNK2A2 (human) (UniProt P19784+P68400); details: ATP 100 µM
# [5] = molecular target: LCK (human) (UniProt P06239); details: ATP 100 µM
# [6] = test system: MAP2K1 (rabbit); details: compound 1.0 µM; accession and sequence are those of the human protein
# [7] = molecular target: MAPK11 (human) (UniProt Q15759); details: ATP 100 µM
# [8] = molecular target: MAPK12 (human) (UniProt P53778); details: ATP 100 µM
# [9] = molecular target: MAPK14 (human) (UniProt Q16539); details: compound 1.0 µM; ATP 100 µM
# [10] = molecular target: MAPK8 (human) (UniProt P45983); details: ATP 100 µM
# [11] = molecular target: MAPKAPK2 (human) (UniProt P49137); details: ATP 100 µM
# [12] = molecular target: MAPKAPK5 (human) (UniProt Q8IW41); details: compound 1.0 µM; ATP 100 µM
# [13] = molecular target: MYLK (chicken); details: accession and sequence are those of the human protein
# [14] = molecular target: PDPK1 (human) (UniProt O15530); details: ATP 100 µM
# [15] = test system: PIK3CG (cow); details: compound 1.0 µM; accession and sequence are those of the human protein
# [16] = molecular target: PRKCA (human) (UniProt P17252); details: ATP 100 µM
# [17] = test system: ROCK2 (rat); details: accession and sequence are those of the human protein
# [18] = molecular target: RPS6KA5 KD1 KD2 (human) (UniProt O75582); details: ATP 100 µM
# [19] = test system: RPS6KB1 (human), P23443 [T412E]; details: ATP 100 µM
# [20] = test system: SGK1 (human), O00141 [S422D]; details: ATP 100 µM
# [21] = test system: MYLK (chicken); experiment: radiometric filter-binding kinase assay; details: compound 1.0 µM; accession and sequence are those of the human protein
# [22] = test system: MYLK2 (rabbit); experiment: radiometric filter-binding kinase assay; details: compound 1.0 µM; ATP 100 µM; accession and sequence are those of the human protein
# [23] = test system: PHKG1 or PHKG2 (rabbit); experiment: radiometric filter-binding kinase assay; details: compound 1.0 µM; ATP 100 µM; accession and sequence are those of the human protein
# [24] = test system: PRKAA1 or PRKAA2 (rat); experiment: radiometric filter-binding kinase assay; details: compound 1.0 µM; ATP 100 µM; accession and sequence are those of the human protein
# [25] = test system: PRKACA or PRKACB (cow); experiment: radiometric filter-binding kinase assay; details: compound 1.0 µM; accession and sequence are those of the human protein
# [26] = test system: RPS6KA3 KD1 KD2 (rabbit); experiment: radiometric filter-binding kinase assay; details: compound 1.0 µM; ATP 100 µM; accession and sequence are those of the human protein
# [27] = molecular target: CAMK2A or CAMK2B or CAMK2D or CAMK2G (human) (UniProt Q13555+Q13557+Q9UQM7+Q13554); details: compound 1.0 µM; ATP 100 µM
# [28] = molecular target: GSK3B (human) (UniProt P49841); details: ATP 100 µM
# [29] = molecular target: MAPK13 (human) (UniProt O15264); details: ATP 100 µM
# [30] = molecular target: MAP2K3 (human) (UniProt P46734); details: compound 10.0 µM; ATP 100 µM
# [31] = molecular target: MAP2K4 (human) (UniProt P45985); details: compound 10.0 µM; ATP 100 µM
# [32] = molecular target: MAP2K6 (human) (UniProt P52564); details: compound 10.0 µM; ATP 100 µM
# [33] = molecular target: MAP2K7 (human) (UniProt O14733); details: compound 10.0 µM; ATP 100 µM
# [34] = test system: MAPK1 (mouse); details: compound 10.0 µM; accession and sequence are those of the human protein
# [35] = test system: PRKAA1 or PRKAA2 (rat); details: compound 10.0 µM; accession and sequence are those of the human protein
# [36] = test system: PRKACA or PRKACB (cow); details: compound 10.0 µM; accession and sequence are those of the human protein
# [37] = test system: RPS6KA3 KD1 KD2 (rabbit); details: compound 10.0 µM; accession and sequence are those of the human protein
# MAPK12 (human), sequence (P53778 whole entry, looked up): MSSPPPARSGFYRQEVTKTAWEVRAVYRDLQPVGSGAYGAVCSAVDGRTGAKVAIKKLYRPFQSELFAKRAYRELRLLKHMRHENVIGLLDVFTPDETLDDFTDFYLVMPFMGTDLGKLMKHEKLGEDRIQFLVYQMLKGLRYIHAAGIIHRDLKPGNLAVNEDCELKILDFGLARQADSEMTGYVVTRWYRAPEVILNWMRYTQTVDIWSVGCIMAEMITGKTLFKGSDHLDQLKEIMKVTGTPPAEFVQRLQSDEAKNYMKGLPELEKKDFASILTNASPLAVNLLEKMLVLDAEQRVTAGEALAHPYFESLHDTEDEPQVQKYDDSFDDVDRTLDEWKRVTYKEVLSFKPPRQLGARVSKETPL
# SGK1 (human), O00141 [S422D], sequence (O00141 whole entry S422D, looked up): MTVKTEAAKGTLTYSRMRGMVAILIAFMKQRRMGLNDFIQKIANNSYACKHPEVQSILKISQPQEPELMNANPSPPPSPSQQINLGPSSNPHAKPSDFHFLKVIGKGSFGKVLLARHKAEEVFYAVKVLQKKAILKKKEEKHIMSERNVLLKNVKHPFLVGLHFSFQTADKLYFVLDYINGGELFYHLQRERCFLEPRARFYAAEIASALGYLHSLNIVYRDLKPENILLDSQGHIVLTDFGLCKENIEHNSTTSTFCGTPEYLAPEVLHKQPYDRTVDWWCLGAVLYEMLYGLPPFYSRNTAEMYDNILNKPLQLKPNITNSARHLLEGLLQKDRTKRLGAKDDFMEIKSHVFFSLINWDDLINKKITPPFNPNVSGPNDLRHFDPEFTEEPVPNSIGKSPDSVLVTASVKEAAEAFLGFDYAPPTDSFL
# RPS6KB1 (human), P23443 [T412E], sequence (P23443 whole entry T412E, looked up): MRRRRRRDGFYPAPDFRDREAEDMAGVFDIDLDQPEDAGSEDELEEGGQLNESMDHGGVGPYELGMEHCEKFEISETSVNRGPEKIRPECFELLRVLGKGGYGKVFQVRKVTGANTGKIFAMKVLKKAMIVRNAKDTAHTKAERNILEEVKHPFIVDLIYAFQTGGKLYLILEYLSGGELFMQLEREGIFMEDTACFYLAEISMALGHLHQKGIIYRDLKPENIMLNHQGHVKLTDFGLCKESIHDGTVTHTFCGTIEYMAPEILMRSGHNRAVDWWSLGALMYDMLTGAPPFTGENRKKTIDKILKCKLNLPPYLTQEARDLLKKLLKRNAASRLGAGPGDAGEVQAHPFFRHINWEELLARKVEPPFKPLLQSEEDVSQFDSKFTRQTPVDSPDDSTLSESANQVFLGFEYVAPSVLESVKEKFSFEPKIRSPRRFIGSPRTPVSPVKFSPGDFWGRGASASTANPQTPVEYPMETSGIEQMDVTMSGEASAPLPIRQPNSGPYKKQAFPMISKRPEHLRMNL
# AKT1 (human), sequence (P31749 whole entry, looked up): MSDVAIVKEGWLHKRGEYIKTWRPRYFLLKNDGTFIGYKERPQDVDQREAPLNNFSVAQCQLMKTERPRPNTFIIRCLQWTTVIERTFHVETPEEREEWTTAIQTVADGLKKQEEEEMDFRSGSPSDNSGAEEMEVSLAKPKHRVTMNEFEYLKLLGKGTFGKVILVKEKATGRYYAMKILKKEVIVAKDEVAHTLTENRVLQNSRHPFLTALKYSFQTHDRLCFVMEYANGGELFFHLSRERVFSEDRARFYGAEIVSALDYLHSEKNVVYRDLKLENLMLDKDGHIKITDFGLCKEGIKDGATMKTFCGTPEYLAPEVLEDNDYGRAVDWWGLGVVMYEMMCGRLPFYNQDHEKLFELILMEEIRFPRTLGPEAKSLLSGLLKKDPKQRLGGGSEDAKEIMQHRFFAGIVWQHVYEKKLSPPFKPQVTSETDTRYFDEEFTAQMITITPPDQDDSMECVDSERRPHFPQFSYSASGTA
# MAPK8 (human), sequence (P45983 whole entry, looked up): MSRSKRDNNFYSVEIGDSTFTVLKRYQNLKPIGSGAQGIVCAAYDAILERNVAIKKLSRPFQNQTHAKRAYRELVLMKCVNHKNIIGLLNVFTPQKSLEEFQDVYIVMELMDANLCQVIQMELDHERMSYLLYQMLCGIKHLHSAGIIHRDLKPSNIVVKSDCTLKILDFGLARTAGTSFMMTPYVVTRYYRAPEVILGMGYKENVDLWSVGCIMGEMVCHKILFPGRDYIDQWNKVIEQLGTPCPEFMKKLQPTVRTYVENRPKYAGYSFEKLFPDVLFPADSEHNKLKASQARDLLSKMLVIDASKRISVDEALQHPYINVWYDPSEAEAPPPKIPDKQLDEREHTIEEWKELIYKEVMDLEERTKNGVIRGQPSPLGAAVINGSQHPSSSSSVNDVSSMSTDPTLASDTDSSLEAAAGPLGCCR
# LCK (human), sequence (P06239 whole entry, looked up): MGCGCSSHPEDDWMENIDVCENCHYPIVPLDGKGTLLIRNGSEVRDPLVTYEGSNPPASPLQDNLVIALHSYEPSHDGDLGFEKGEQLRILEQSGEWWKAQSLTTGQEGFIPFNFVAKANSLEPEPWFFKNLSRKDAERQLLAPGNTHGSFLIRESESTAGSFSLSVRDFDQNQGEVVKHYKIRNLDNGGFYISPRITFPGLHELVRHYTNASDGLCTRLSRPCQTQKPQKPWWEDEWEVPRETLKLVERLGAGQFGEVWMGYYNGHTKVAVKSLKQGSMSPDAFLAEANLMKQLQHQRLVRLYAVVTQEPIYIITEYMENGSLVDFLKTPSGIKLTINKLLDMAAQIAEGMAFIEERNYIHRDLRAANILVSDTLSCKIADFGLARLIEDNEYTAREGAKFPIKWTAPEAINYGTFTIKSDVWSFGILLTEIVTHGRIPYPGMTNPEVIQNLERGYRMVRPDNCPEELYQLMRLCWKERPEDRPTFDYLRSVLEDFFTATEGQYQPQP
# CHEK1 (human), sequence (O14757 whole entry, looked up): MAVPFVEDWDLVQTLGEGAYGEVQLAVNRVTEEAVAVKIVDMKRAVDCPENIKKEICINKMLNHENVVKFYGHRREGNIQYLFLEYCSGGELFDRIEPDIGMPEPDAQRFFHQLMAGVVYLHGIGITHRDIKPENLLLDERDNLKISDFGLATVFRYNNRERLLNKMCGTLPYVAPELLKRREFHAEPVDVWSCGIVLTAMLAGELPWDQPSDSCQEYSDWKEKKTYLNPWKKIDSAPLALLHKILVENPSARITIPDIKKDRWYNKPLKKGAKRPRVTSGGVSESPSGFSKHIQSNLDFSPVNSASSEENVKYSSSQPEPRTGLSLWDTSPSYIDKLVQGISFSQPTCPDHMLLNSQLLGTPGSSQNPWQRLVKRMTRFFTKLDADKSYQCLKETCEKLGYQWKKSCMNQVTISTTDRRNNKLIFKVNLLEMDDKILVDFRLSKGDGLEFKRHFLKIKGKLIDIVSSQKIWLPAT
# MAPKAPK2 (human), sequence (P49137 whole entry, looked up): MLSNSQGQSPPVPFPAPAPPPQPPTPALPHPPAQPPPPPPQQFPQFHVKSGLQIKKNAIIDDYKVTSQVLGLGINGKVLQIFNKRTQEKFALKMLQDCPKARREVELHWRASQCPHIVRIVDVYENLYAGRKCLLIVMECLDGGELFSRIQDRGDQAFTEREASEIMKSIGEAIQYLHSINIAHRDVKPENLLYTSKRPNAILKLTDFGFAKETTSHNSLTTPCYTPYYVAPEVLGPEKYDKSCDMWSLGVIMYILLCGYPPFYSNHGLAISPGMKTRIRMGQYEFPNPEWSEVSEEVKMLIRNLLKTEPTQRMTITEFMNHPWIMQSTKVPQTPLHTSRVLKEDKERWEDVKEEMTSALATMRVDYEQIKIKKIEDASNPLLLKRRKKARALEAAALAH
# GSK3B (human), sequence (P49841 whole entry, looked up): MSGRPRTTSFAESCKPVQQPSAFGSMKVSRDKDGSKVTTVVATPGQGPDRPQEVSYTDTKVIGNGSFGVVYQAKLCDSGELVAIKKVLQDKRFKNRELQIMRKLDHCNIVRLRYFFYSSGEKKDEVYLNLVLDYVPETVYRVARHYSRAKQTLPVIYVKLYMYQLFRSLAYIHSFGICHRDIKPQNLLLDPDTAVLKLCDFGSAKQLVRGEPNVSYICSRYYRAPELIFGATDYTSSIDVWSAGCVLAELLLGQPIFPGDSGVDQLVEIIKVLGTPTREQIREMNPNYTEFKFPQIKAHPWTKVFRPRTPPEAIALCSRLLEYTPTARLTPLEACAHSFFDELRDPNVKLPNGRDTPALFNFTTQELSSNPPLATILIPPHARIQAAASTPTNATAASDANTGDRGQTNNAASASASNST
compound,measurement,setting,value
CCCCCCOC(=O)[C@@]1(O)C[C@H]2O[C@]1(C)n1c3ccccc3c3c4c(c5c6ccccc6n2c5c31)C(=O)NC4,residual activity,[1],0%
O=C1NCc2c1c1c3ccccc3[nH]c1c1[nH]c3ccccc3c21,residual activity,[1],0%
COC[C@H]1OC(=O)c2coc3c2[C@@]1(C)C1=C(C3=O)[C@@H]2CCC(=O)[C@@]2(C)C[C@H]1OC(C)=O,residual activity,[2],96%
same,residual activity,[3]; compound 1.0 µM,99%
same,residual activity,[4]; compound 1.0 µM,98%
same,residual activity,[5]; compound 1.0 µM,95%
same,residual activity,[6],96%
same,residual activity,[7]; compound 1.0 µM,74%
same,residual activity,[8]; compound 1.0 µM,75%
same,residual activity,[9],86%
same,residual activity,[10]; compound 1.0 µM,97%
same,residual activity,[11]; compound 1.0 µM,102%
same,residual activity,[12],85%
same,IC50,[13],260 nM
same,residual activity,[14]; compound 1.0 µM,88%
same,residual activity,[15],0%
same,residual activity,[16]; compound 1.0 µM,100%
same,residual activity,[17]; compound 1.0 µM,91%
same,residual activity,[18]; compound 1.0 µM,99%
same,residual activity,[19]; compound 1.0 µM,106%
same,residual activity,[20]; compound 1.0 µM,101%
same,residual activity,[21],4%
same,residual activity,[22],104%
same,residual activity,[23],100%
same,residual activity,[24],106%
same,residual activity,[25],97%
same,residual activity,[26],92%
CN[C@@H]1C[C@@H]2O[C@@](C)([C@@H]1OC)n1c3ccccc3c3c4c(c5c6ccccc6n2c5c31)C(=O)N[C@@H]4O,residual activity,[2],31%
same,residual activity,[27],69%
same,residual activity,[3]; compound 1.0 µM,3%
same,residual activity,[4]; compound 1.0 µM,77%
same,residual activity,[28]; compound 1.0 µM,83%
same,residual activity,[5]; compound 1.0 µM,7%
same,residual activity,[6],90%
same,residual activity,[8]; compound 1.0 µM,76%
same,residual activity,[29]; compound 1.0 µM,91%
same,residual activity,[9],92%
same,residual activity,[10]; compound 1.0 µM,98%
same,residual activity,[11]; compound 1.0 µM,90%
same,residual activity,[12],77%
same,residual activity,[14]; compound 1.0 µM,0%
same,residual activity,[16]; compound 1.0 µM,1%
same,residual activity,[17]; compound 1.0 µM,22%
same,residual activity,[18]; compound 1.0 µM,19%
same,residual activity,[19]; compound 1.0 µM,28%
same,residual activity,[23],0%
same,residual activity,[24],1%
same,residual activity,[25],39%
same,residual activity,[26],5%
CO[C@H]1CC2CC[C@@H](C)[C@@](O)(O2)C(=O)C(=O)N2CCCC[C@H]2C(=O)OC([C@H](C)C[C@@H]2CC[C@@H](O)[C@H](OC)C2)CC(=O)[C@H](C)/C=C(\C)[C@@H](O)[C@@H](OC)C(=O)[C@H](C)C[C@H](C)/C=C/C=C/C=C/1C (some centres not stated),residual activity,[2],91%
same,residual activity,[3]; compound 1.0 µM,102%
same,residual activity,[4]; compound 1.0 µM,104%
same,residual activity,[28]; compound 1.0 µM,89%
same,residual activity,[5]; compound 1.0 µM,102%
same,residual activity,[6],99%
same,residual activity,[8]; compound 1.0 µM,100%
same,residual activity,[10]; compound 1.0 µM,98%
same,residual activity,[11]; compound 1.0 µM,125%
same,residual activity,[14]; compound 1.0 µM,110%
same,residual activity,[16]; compound 1.0 µM,99%
same,residual activity,[17]; compound 1.0 µM,92%
same,residual activity,[18]; compound 1.0 µM,104%
same,residual activity,[19]; compound 1.0 µM,109%
same,residual activity,[20]; compound 1.0 µM,108%
same,residual activity,[23],103%
same,residual activity,[24],106%
same,residual activity,[25],104%
N#CC(=C(\N)Sc1ccccc1N)/C(C#N)=C(/N)Sc1ccccc1N,residual activity,[3]; compound 10.0 µM,95%
same,residual activity,[4]; compound 10.0 µM,107%
same,residual activity,[28]; compound 10.0 µM,105%
same,residual activity,[5]; compound 10.0 µM,87%
same,residual activity,[30],114%
same,residual activity,[31],81%
same,residual activity,[32],79%
same,residual activity,[33],89%
same,residual activity,[34],92%
same,residual activity,[7]; compound 10.0 µM,90%
same,residual activity,[8]; compound 10.0 µM,100%
same,residual activity,[29]; compound 10.0 µM,111%
same,residual activity,[10]; compound 10.0 µM,96%
same,residual activity,[11]; compound 10.0 µM,102%
same,residual activity,[14]; compound 10.0 µM,99%
same,residual activity,[1],101%
same,residual activity,[35],85%
same,residual activity,[36],95%
same,residual activity,[16]; compound 10.0 µM,92%
same,residual activity,[17]; compound 10.0 µM,94%
same,residual activity,[37],88%
same,residual activity,[18]; compound 10.0 µM,104%
same,residual activity,[19]; compound 10.0 µM,92%
same,residual activity,[20]; compound 10.0 µM,91%
CN1C(=O)C(c2c[nH]c3ccccc23)=C(c2c[nH]c3ccccc23)C1=O,residual activity,[23],100%
